In patent US5391540A, “Substituted pyridine compounds” (Rohm and Haas Company, priority 1993, dated 1995):

What was measured:
Assay in all cases: Pre-emergent herbicidal activity (Table A)
Format in all cases: in vivo
Rhizome Johnsongrass = conditions: Sorghum halepense, pre-emergence, Rhjg, 11.2 kg/ha, 10-14 days, read-out: herbicidal rating (% inhibition)
How it was run: (§1)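 Seeds or perennial propagules set on compacted topsoil, then covered with soil mixed with a known amount of test compound applied in acetone or water carrier. Ratings assigned on a scale based on percent inhibition of each species.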

Downy Brome = conditions: Bromus tectorum, pre-emergence, Dobr, 11.2 kg/ha, 10-14 days, read-out: herbicidal rating (% inhibition)
How it was run: as §1

Cocklebur = conditions: Xanthium strumarium, pre-emergence, Cobu, 11.2 kg/ha, 10-14 days, read-out: herbicidal rating (% inhibition)
How it was run: as §1

Canada thistle = conditions: Cirsium arvense, pre-emergence, Cath, 11.2 kg/ha, 10-14 days, read-out: herbicidal rating (% inhibition)
How it was run: as §1

Common Lambsquarters = conditions: Chenopodium album, pre-emergence, Colq, 11.2 kg/ha, 10-14 days, read-out: herbicidal rating (% inhibition)
How it was run: as §1

Velvetleaf = conditions: Abutilon theophrasti, pre-emergence, Vele, 11.2 kg/ha, 10-14 days, read-out: herbicidal rating (% inhibition)
How it was run: as §1

Yellow Nutsedge = conditions: Cyperus, pre-emergence, Yens, 11.2 kg/ha, 10-14 days, read-out: herbicidal rating (% inhibition)
How it was run: as §1

Quackgrass = conditions: pre-emergence, Rhqg, 11.2 kg/ha, 10-14 days, read-out: herbicidal rating (% inhibition)
How it was run: as §1

Pennsylvania Smartweed = conditions: pre-emergence, Pesw, 11.2 kg/ha, 10-14 days, read-out: herbicidal rating (% inhibition)
How it was run: as §1

Barnyardgrass = conditions: Echinochloa crus-galli, pre-emergence, Bygr, 11.2 kg/ha, 10-14 days, read-out: herbicidal rating (% inhibition)
How it was run: as §1

Morningglory = conditions: Ipomoea, pre-emergence, Mogl, 11.2 kg/ha, 10-14 days, read-out: herbicidal rating (% inhibition)
How it was run: as §1

CCOC=Nc1c(C(F)(F)F)nc(OC)c(C(=O)OC)c1CC(C)C [Compound 61, 3-pyridinecarboxylic acid, 5-[(ethoxymethylene)amino]-2-methoxy-4-(2-methylpropyl)-6-(trifluoromethyl)-, methyl ester]
inhibition at 11200 g/ha (Rhizome Johnsongrass): 75 to 100% | inhibition at 11200 g/ha (Downy Brome): 75 to 100% | inhibition at 11200 g/ha (Cocklebur): 25 to 49% | inhibition at 11200 g/ha (Canada thistle): 50 to 74% | inhibition at 11200 g/ha (Common Lambsquarters): 75 to 100% | inhibition at 11200 g/ha (Velvetleaf): 75 to 100% | inhibition at 11200 g/ha (Yellow Nutsedge): 0 to 24% | inhibition at 11200 g/ha (Quackgrass): 75 to 100% | inhibition at 11200 g/ha (Pennsylvania Smartweed): 75 to 100% | inhibition at 11200 g/ha (Barnyardgrass): 75 to 100% | inhibition at 11200 g/ha (Morningglory): 75 to 100%

COC(=O)c1c(OC)nc(C(F)(F)F)c(C(=O)N2CCSCC2)c1CC(C)C [Compound 70, 3-pyridinecarboxylic acid, 2-methoxy-4-(2-methylpropyl)-5-(4-thiomorpholinylcarbonyl)-6-(trifluoromethyl)-, methyl ester]
inhibition at 11200 g/ha (Rhizome Johnsongrass): 0 to 24% | inhibition at 11200 g/ha (Downy Brome): 50 to 74% | inhibition at 11200 g/ha (Cocklebur): 0 to 24% | inhibition at 11200 g/ha (Canada thistle): 50 to 74% | inhibition at 11200 g/ha (Common Lambsquarters): 75 to 100% | inhibition at 11200 g/ha (Velvetleaf): 0 to 24% | inhibition at 11200 g/ha (Yellow Nutsedge): 25 to 49% | inhibition at 11200 g/ha (Quackgrass): 50 to 74% | inhibition at 11200 g/ha (Pennsylvania Smartweed): 0 to 24% | inhibition at 11200 g/ha (Barnyardgrass): 75 to 100% | inhibition at 11200 g/ha (Morningglory): 50 to 74%

COC(=O)c1c(OC)nc(C(F)(F)F)c(C(=O)N2CCSC2)c1CC(C)C [Compound 71, 3-pyridinecarboxylic acid, 2-methoxy-4-(2-methylpropyl)-5-(3-thiazolidinylcarbonyl)-6-(trifluoromethyl)-, methyl ester]
inhibition at 11200 g/ha (Rhizome Johnsongrass): 0 to 24% | inhibition at 11200 g/ha (Downy Brome): 75 to 100% | inhibition at 11200 g/ha (Cocklebur): 0 to 24% | inhibition at 11200 g/ha (Canada thistle): 25 to 49% | inhibition at 11200 g/ha (Common Lambsquarters): 75 to 100% | inhibition at 11200 g/ha (Velvetleaf): 25 to 49% | inhibition at 11200 g/ha (Yellow Nutsedge): 0 to 24% | inhibition at 11200 g/ha (Quackgrass): 50 to 74% | inhibition at 11200 g/ha (Pennsylvania Smartweed): 50 to 74% | inhibition at 11200 g/ha (Barnyardgrass): 75 to 100% | inhibition at 11200 g/ha (Morningglory): 50 to 74%

COC(=O)c1c(C(F)(F)F)nc(OC)c(C(=O)n2ccnc2)c1CC(C)C [Compound 28, 3-pyridinecarboxylic acid, 6-methoxy-4-(2-methylpropyl)-5-(1H-imidazo1-1-ylcarbonyl)-2-(trifluoromethyl)-, methyl ester]
inhibition at 11200 g/ha (Rhizome Johnsongrass): 0 to 24% | inhibition at 11200 g/ha (Downy Brome): 75 to 100% | inhibition at 11200 g/ha (Cocklebur): 75 to 100% | inhibition at 11200 g/ha (Canada thistle): 0 to 24% | inhibition at 11200 g/ha (Common Lambsquarters): 75 to 100% | inhibition at 11200 g/ha (Velvetleaf): 25 to 49% | inhibition at 11200 g/ha (Yellow Nutsedge): 0 to 24% | inhibition at 11200 g/ha (Quackgrass): 0 to 24% | inhibition at 11200 g/ha (Pennsylvania Smartweed): 50 to 74% | inhibition at 11200 g/ha (Barnyardgrass): 75 to 100% | inhibition at 11200 g/ha (Morningglory): 50 to 74%

COC(=O)c1c(OC)nc(C(F)(F)F)c(C(=O)OC)c1C(C)C [Compound 63, 3,5-pyridinedicarboxylic acid, 2-methoxy-4-(1-methylethyl)-6-(trifluoromethyl)-, dimethyl ester]
inhibition at 11200 g/ha (Rhizome Johnsongrass): 75 to 100% | inhibition at 11200 g/ha (Downy Brome): 75 to 100% | inhibition at 11200 g/ha (Cocklebur): 0 to 24% | inhibition at 11200 g/ha (Canada thistle): 50 to 74% | inhibition at 11200 g/ha (Common Lambsquarters): 75 to 100% | inhibition at 11200 g/ha (Velvetleaf): 75 to 100% | inhibition at 11200 g/ha (Yellow Nutsedge): 75 to 100% | inhibition at 11200 g/ha (Quackgrass): 75 to 100% | inhibition at 11200 g/ha (Pennsylvania Smartweed): 75 to 100% | inhibition at 11200 g/ha (Barnyardgrass): 75 to 100% | inhibition at 11200 g/ha (Morningglory): 75 to 100%

COC(=O)c1c(OC)nc(C(F)(F)F)c(C(=O)n2cccn2)c1CC(C)C [Compound 42, 3-pyridinecarboxylic acid, 2-methoxy-4-(2-methylpropyl)-5-(1H-pyrazo1-1-ylcarbonyl)-6-(trifluoromethyl)-, methyl ester]
inhibition at 11200 g/ha (Rhizome Johnsongrass): 50 to 74% | inhibition at 11200 g/ha (Downy Brome): 75 to 100% | inhibition at 11200 g/ha (Cocklebur): 75 to 100% | inhibition at 11200 g/ha (Canada thistle): 75 to 100% | inhibition at 11200 g/ha (Common Lambsquarters): 75 to 100% | inhibition at 11200 g/ha (Velvetleaf): 75 to 100% | inhibition at 11200 g/ha (Yellow Nutsedge): 50 to 74% | inhibition at 11200 g/ha (Quackgrass): 75 to 100% | inhibition at 11200 g/ha (Pennsylvania Smartweed): 75 to 100% | inhibition at 11200 g/ha (Barnyardgrass): 75 to 100% | inhibition at 11200 g/ha (Morningglory): 75 to 100%

COc1nc(C(F)(F)F)c(C2=NCCS2)c(CC(C)C)c1C(=O)SC [Compound 54, 3-pyridinecarbothioic acid, 5-(4,5-dihydro-2-thiazolyl)-2-methoxy-4-(2-methylpropyl)-6-(trifluoromethyl)-, S-methyl ester]
inhibition at 11200 g/ha (Rhizome Johnsongrass): 0 to 24% | inhibition at 11200 g/ha (Downy Brome): 75 to 100% | inhibition at 11200 g/ha (Cocklebur): 25 to 49% | inhibition at 11200 g/ha (Canada thistle): 75 to 100% | inhibition at 11200 g/ha (Common Lambsquarters): 75 to 100% | inhibition at 11200 g/ha (Velvetleaf): 75 to 100% | inhibition at 11200 g/ha (Yellow Nutsedge): 0 to 24% | inhibition at 11200 g/ha (Quackgrass): 75 to 100% | inhibition at 11200 g/ha (Pennsylvania Smartweed): 75 to 100% | inhibition at 11200 g/ha (Barnyardgrass): 75 to 100% | inhibition at 11200 g/ha (Morningglory): 75 to 100%
